We go through 4 molecules from US12409150B2, “pH-sensitive carbon nanoparticles, preparation method therefor, and drug delivery using same” (PCE Tech Co., Ltd., priority 2018, dated 2025).

The conditions of data set [1]: cited from earlier work.
The subject of data set [2] is CT-26 (Mouse colon cancer) cells. The experiment in a line: In vivo photodynamic anticancer and immune anticancer effect, both cancer tissues for 15 days. Further details: species or system BALB/c mice. Particulars: 0.4 mg/ml based on chlorine e6 i.v. An excerpt: In order to confirm the anticancer effect in vivo and the anticancer effect due to photodynamic-based immunity induction of the pH-sensitive photodynamic therapeutic agent prepared in the above Example 5, CT-26 (Mouse colon cancer) cells were inoculated subcutaneously in the left leg of BALB/c mice (1×10^6 cells) and the right leg (5×10^5 cells). When the size of the cancer tissue reaches about 50 mm^3, a pH-sensitive photodynamic therapeutic agent, chlorine e6 alone formulation as a comparative group, pH-sensitive carbon nanoparticles without drug encapsulation, and PBS were injected intravenously at 0.4 mg/ml based on chlorine e6, and after 24 hours after intravenous injection, only the left cancer tissue was irradiated with a laser. This was repeated twice, and the laser was irradiated for 1000 seconds (100 J/cm^2) with an energy of 100 mW/cm^2. By measuring the size of both cancer tissues for 15 days, the photodynamic anticancer effect and the resulting immune anti-cancer effect were confirmed.

For data set [3] the test system is unchanged. In words: In vivo behavior, in vivo fluorescence imaging for 24 hours. Further details: species or system BALB/c nude mice. Particulars: intravenous, 0.4 mg/ml based on chlorine e6, 24 hours. Here is the method:
In order to confirm the in vivo behavior of the pH-sensitive photodynamic therapeutic agent prepared in the above Example 5, CT-26 (Mouse colon cancer) cells were inoculated into BALB/c nude mice. When the size of the cancer tissue reaches about 50-100 mm^3, a pH-sensitive photodynamic therapeutic agent (Ce6@CDs) and chlorine e6 alone formulation (Free Ce6) as a comparative group were injected intravenously at 0.4 mg/ml based on chlorine e6, and for 24 hours after then, the in vivo behavior was confirmed using in vivo fluorescence imaging (fluorescence-labeled bioimaging instrument) hourly.

The nature of data set [4]: Active oxygen generation, singlet oxygen sensor green (SOSG), 670 nm laser. Particulars: for singlet oxygen generation: 670 nm laser, 20 mW/cm^2. Here is the method: A singlet oxygen sensor green (SOSG) capable of detecting singlet oxygen was used to confirm the generation of active oxygen in particles of a pH-sensitive photodynamic therapeutic agent prepared in the above Example 5.
Specifically, 1 ml of a solution in which SOSG was dissolved and 1 ml of a solution in which a pH-sensitive carbon nanoparticle-based photodynamic therapeutic agent was dissolved were mixed, and a 670 nm laser was irradiated. The laser was irradiated with an energy of 20 mW/cm^2, and the fluorescence intensity was measured using a fluorescence spectrophotometer every 10 seconds (0.2 J/cm^2) to confirm the generation of active oxygen. In addition, in order to measure the efficiency of generating reactive oxygen species according to pH, 1 ml of a solution in which a pH-sensitive photodynamic therapeutic agent having pH 7.4, the pH in vivo and a pH of 6.5 in a cancer environment, was dissolved and 1 ml of a SOSG solution were mixed, and a 670 nm laser is irradiated. The laser was irradiated with an energy of 50 mW/cm^2, and the fluorescence intensity was measured using a fluorescence spectrophotometer every 10 seconds (0.5 J/cm^2) to confirm the generation of active oxygen species.

Data set [5] concerns CT-26 (Mouse colon cancer) cells. The experiment in a line: Intracellular influx according to pH, confocal microscopy. The class given is cell-based. Particulars: pH 7.4, 4 hours. Here is the method: In order to confirm the influx effect into cancer cells at pH 7.4 and pH 6.5 using the pH-sensitive photodynamic therapeutic agent prepared in the above Example 5, CT-26 (Mouse colon cancer) cells were used. The pH-sensitive carbon nanoparticle-based photodynamic therapeutic agent was treated for 4 hours in the culture solutions of pH 7.4 and pH 6.5, respectively, and chlorine e6 was treated alone as a control group for comparative evaluation. The intracellular influx was analyzed by fluorescence (460, 665 nm) of carbon nanoparticles and chlorine e6 using confocal microscopy.

Data set [6] shares this test system. In words: Photodynamic cancer cell killing at pH 6.5, MTT assay. Particulars: pH 6.5, 1 μg/ml based on chlorine e6, 670 nm laser irradiated (+), 2 J/cm^2. The method, then:
In order to confirm the cancer cell killing effect of the pH-sensitive photodynamic therapeutic agent prepared in the above Example 5 at a cancer environment pH of 6.5, CT-26 (Mouse colon cancer) cells were used. Samples of the pH-sensitive carbon nanoparticle-based photodynamic therapeutic agent and chlorine e6 alone as other comparative group and carbon nanoparticles without pH sensitivity (Comparative Example 1) were treated with 1 μg/ml based on the concentration of chlorine e6 in the pH 6.5 culture medium, equally and a 670 nm laser was irradiated thereto. The laser was irradiated for […] (2 J/cm^2) with an energy of 50 mW/cm^2. Cell death was performed using the MTT assay, and analyzed at 570 nm using a microplate reader.

In data set [7] the test system is HCT-116 (Human colon cancer) cells. In words: Inhibition of cancer growth in vivo, cancer tissue size for 15 days. Further details: species or system BALB/c mice. Particulars: intravenous, 2 mg/ml based on doxorubicin. The method, then:
After that, the size of the cancer tissue was measured for 15 days to confirm the anticancer effect.

Data set [8] relates to PANC-1 (human pancreas cancer). In words: Cancer cell killing, MTT assay at pH 7.4 and pH 6.5. The class given is cell-based. Particulars: regardless of pH (7.4, 6.5). The method, then: (§1) In order to confirm the cancer cell killing effect of the CA and API-based pH-sensitive carbon nanoparticle drug carrier encapsulated with doxorubicin prepared in Example 4, HCT-116 (human colon cancer), SKBR-3 (human breast cancer), PANC-1 (human pancreas cancer) cells were used. The pH-sensitive carbon nanoparticle drug carrier was treated by concentration of doxorubicin in culture solutions of pH 7.4 and pH 6.5, respectively, and the comparison group was comparatively evaluated by treating doxorubicin alone by concentration. Cell death was performed using the MTT assay, and analyzed at 490 nm using a microplate reader.

In data set [9] the test system is SKBR-3 (human breast cancer). The data set is described as above. The class given is cell-based. Particulars: regardless of pH (7.4, 6.5). Here is the method: as §1
In data set [10] the test system is HCT-116 (human colon cancer). The data set is described as above. The class given is cell-based. Particulars: regardless of pH (7.4, 6.5). Here is the method:
as §1

For the molecule `NCCCn1ccnc1` [API, 1-(3-aminopropyl) imidazole], the pKa value in data set [1] is reported as 6.9.

Consider `C=Cc1c(C)c2cc3nc(c(CC(=O)O)c4[nH]c(cc5nc(cc1[nH]2)C(C)=C5CC)c(C)c4C(=O)O)[C@@H](CCC(=O)O)[C@@H]3C` [Free Ce6, chlorine e6], for which the “cancer growth regardless of laser irradiation” value in [2] is “cancer rapidly grows”. Besides, in data set [3], the “in vivo fluorescence behavior” value is listed as “fluorescence quickly disappeared”. The singlet oxygen generation entry in [4] is recorded as “hardly produce singlet oxygen”. In addition, in data set [4] (pH 7.4 and pH 6.5, 670 nm laser, 50 mW/cm^2), the “singlet oxygen generation according to pH” value was “hardly generated singlet oxygen”. In [5], the “degree of influx into cells” value is “similar”. In data set [6], this molecule displayed a cell death rate of 50%.

Turning to `COc1cccc2c1C(=O)c1c(O)c3c(c(O)c1C2=O)C[C@@](O)(C(=O)CO)C[C@@H]3O[C@H]1C[C@H](N)[C@H](O)[C@H](C)O1` [Free DOX, doxorubicin], in data set [7], the “cancer growth in vivo” value is “cancer continued to grow”. Moreover, the “concentration at which cells died” value in data set [8], in data set [9] and in [10] was “about 50 ug/ml” each time.

Take pheophorbide a [Pheo A]: in data set [4], the singlet oxygen generation entry is “hardly produce singlet oxygen”.
